{"source": "patent US6355799B1", "about": "“Substituted benzene compounds, process for their preparation, and herbicidal and defoliant compositions containing them” (ISK Americas Incorporated, priority 1997, dated 2002)", "assay_type_in_all_cases": "in vivo", "key": {"[1]": {"tested_on": "redroot pigweed (Amaranthus retroflexus, AMARE)", "assay": "Pre-emerge test, greenhouse herbicide activity screening", "details": "rated 14 days after application, 0 = no damage, 100 = complete death", "outline": "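Compounds in acetone were track-sprayed at 187 l/ha, 15–1000 g ai/ha, onto sandy loam pots. Pre-emerge seeds were sown one day before spraying, with surface watering afterwards. Post-emerge plants were at the 2–3 leaf stage and sprayed with 0.25% v/v non-ionic surfactant. Injury was rated 0–100 at 14 days.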"}, "[2]": {"tested_on": "field corn (Zea mays L., var. Dekalb 535, CORN)", "assay": "Pre-emerge test, crop safety", "details": "rated 14 days after application, 0 = no damage, 100 = complete death", "outline": "(§1)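 Applied at 15–1000 g ai/ha from acetone in 187 l/ha spray volume. Post-emergence applications included 0.25% v/v non-ionic surfactant and reached plants sown 8–21 days before. Pre-emergence applications were incorporated by surface watering. Efficacy or crop damage was rated on a 0–100 scale after 14 days.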"}, "[3]": {"tested_on": "upland rice (Oryza sp., var. Tebonnet, RICE)", "assay": "Pre-emerge test, crop safety", "details": "rated 14 days after application, 0 = no damage, 100 = complete death", "outline": "as §1"}, "[4]": {"tested_on": "lambsquarters (Chenopodium album, CHEAL)", "assay": "Post-emerge test, greenhouse herbicide activity screening", "details": "post-emerge, 14 days after application, rating scale 0-100", "outline": "(§2)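 Rating: 0–100 visual injury, 14 DAA. Application: acetone, 187 l/ha, 15–1000 g ai/ha, flat-fan track sprayer with nozzle 40–45 cm above soil or canopy. Post-emerge runs used 0.25% v/v surfactant on 2–3 leaf plants.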"}, "[5]": {"tested_on": "redroot pigweed (Amaranthus retroflexus, AMARE)", "assay": "Post-emerge test, greenhouse herbicide activity screening", "details": "post-emerge, 14 days after application, rating scale 0-100", "outline": "as §2"}, "[6]": {"tested_on": "green foxtail (Setaria viridis, SETVI)", "assay": "Post-emerge test, greenhouse herbicide activity screening", "details": "post-emerge, 14 days after application, rating scale 0-100", "outline": "as §2"}, "[7]": {"tested_on": "velvetleaf (Abutilon theophrasti, ABUTH)", "assay": "Post-emerge test, greenhouse herbicide activity screening", "details": "post-emerge, 14 days after application, rating scale 0-100", "outline": "as §2"}, "[8]": {"tested_on": "johnsongrass (Sorghum halepense, SORHA)", "assay": "Post-emerge test, greenhouse herbicide activity screening", "details": "post-emerge, 14 days after application, rating scale 0-100", "outline": "as §2"}, "[9]": {"tested_on": "common ragweed (Ambrosia artemisizfolia L., AMBEL)", "assay": "Post-emerge test, greenhouse herbicide activity screening", "details": "post-emerge, 14 days after application, rating scale 0-100", "outline": "as §2"}, "[10]": {"tested_on": "sicklepod (Cassia obtusifolia, CASOB)", "assay": "Post-emerge test, greenhouse herbicide activity screening", "details": "post-emerge, 14 days after application, rating scale 0-100", "outline": "as §2"}, "[11]": {"tested_on": "barnyardgrass (Echinochloa crus-galli, ECHCG)", "assay": "Post-emerge test, greenhouse herbicide activity screening", "details": "post-emerge, 14 days after application, rating scale 0-100", "outline": "as §2"}, "[12]": {"tested_on": "large crabgrass (Digitaria sanguinalis, DIGSA)", "assay": "Post-emerge test, greenhouse herbicide activity screening", "details": "post-emerge, 14 days after application, rating scale 0-100", "outline": "as §2"}, "[13]": {"tested_on": "ivyleaf morningglory (Ipomoea hederacea, IPOHE)", "assay": "Post-emerge test, greenhouse herbicide activity screening", "details": "post-emerge, 14 days after application, rating scale 0-100", "outline": "as §2"}, "[14]": {"tested_on": "lambsquarters (Chenopodium album, CHEAL)", "assay": "Pre-emerge test, greenhouse herbicide activity screening", "details": "rated 14 days after application, 0 = no damage, 100 = complete death", "outline": "as §1"}, "[15]": {"tested_on": "green foxtail (Setaria viridis, SETVI)", "assay": "Pre-emerge test, greenhouse herbicide activity screening", "details": "rated 14 days after application, 0 = no damage, 100 = complete death", "outline": "as §1"}, "[16]": {"tested_on": "velvetleaf (Abutilon theophrasti, ABUTH)", "assay": "Pre-emerge test, greenhouse herbicide activity screening", "details": "rated 14 days after application, 0 = no damage, 100 = complete death", "outline": "as §1"}, "[17]": {"tested_on": "johnsongrass (Sorghum halepense, SORHA)", "assay": "Pre-emerge test, greenhouse herbicide activity screening", "details": "rated 14 days after application, 0 = no damage, 100 = complete death", "outline": "as §1"}, "[18]": {"tested_on": "common ragweed (Ambrosia artemisizfolia L., AMBEL)", "assay": "Pre-emerge test, greenhouse herbicide activity screening", "details": "rated 14 days after application, 0 = no damage, 100 = complete death", "outline": "as §1"}, "[19]": {"tested_on": "sicklepod (Cassia obtusifolia, CASOB)", "assay": "Pre-emerge test, greenhouse herbicide activity screening", "details": "rated 14 days after application, 0 = no damage, 100 = complete death", "outline": "as §1"}, "[20]": {"tested_on": "barnyardgrass (Echinochloa crus-galli, ECHCG)", "assay": "Pre-emerge test, greenhouse herbicide activity screening", "details": "rated 14 days after application, 0 = no damage, 100 = complete death", "outline": "as §1"}, "[21]": {"tested_on": "large crabgrass (Digitaria sanguinalis, DIGSA)", "assay": "Pre-emerge test, greenhouse herbicide activity screening", "details": "rated 14 days after application, 0 = no damage, 100 = complete death", "outline": "as §1"}, "[22]": {"tested_on": "ivyleaf morningglory (Ipomoea hederacea, IPOHE)", "assay": "Pre-emerge test, greenhouse herbicide activity screening", "details": "rated 14 days after application, 0 = no damage, 100 = complete death", "outline": "as §1"}, "[23]": {"tested_on": "field corn (Zea mays L., var. Dekalb 535, CORN)", "assay": "Post-emerge test, crop safety", "details": "post-emerge, 14 days after application, rating scale 0-100", "outline": "as §1"}, "[24]": {"tested_on": "upland rice (Oryza sp., var. Tebonnet, RICE)", "assay": "Post-emerge test, crop safety", "details": "post-emerge, 14 days after application, rating scale 0-100", "outline": "as §1"}}, "data": [{"molecule": "COc1c(Cl)cc(F)c(-n2c(=O)cc(C(F)(F)F)n(C)c2=O)c1NC(=O)c1ccc(Cl)cc1", "note": "[2-56]", "values": [{"measurement": "Pre-emerge Herbicidal Activity, phytotoxicity rating (0-100), AMARE", "setting": "[1]; 63 g ai/ha", "result": 100}, {"measurement": "Pre-emerge Herbicidal Activity, phytotoxicity rating (0-100), AMARE", "setting": "[1]; 250 g ai/ha", "result": 100}, {"measurement": "Pre-emerge phytotoxicity rating (0-100), crop damage, CORN", "setting": "[2]; 63 g ai/ha", "result": 80}, {"measurement": "Pre-emerge phytotoxicity rating (0-100), crop damage, CORN", "setting": "[2]; 250 g ai/ha", "result": 95}, {"measurement": "Pre-emerge phytotoxicity rating (0-100), crop damage, RICE", "setting": "[3]; 63 g ai/ha", "result": 30}, {"measurement": "Pre-emerge phytotoxicity rating (0-100), crop damage, RICE", "setting": "[3]; 250 g ai/ha", "result": 95}, {"measurement": "phytotoxicity rating CHEAL", "setting": "[4]; 63 g ai/ha", "result": 100}, {"measurement": "phytotoxicity rating CHEAL", "setting": "[4]; 250 g ai/ha", "result": 100}, {"measurement": "phytotoxicity rating AMARE", "setting": "[5]; 63 g ai/ha", "result": 100}, {"measurement": "phytotoxicity rating AMARE", "setting": "[5]; 250 g ai/ha", "result": 100}, {"measurement": "phytotoxicity rating SETVI", "setting": "[6]; 63 g ai/ha", "result": 80}, {"measurement": "phytotoxicity rating SETVI", "setting": "[6]; 250 g ai/ha", "result": 60}, {"measurement": "phytotoxicity rating ABUTH", "setting": "[7]; 63 g ai/ha", "result": 100}, {"measurement": "phytotoxicity rating ABUTH", "setting": "[7]; 250 g ai/ha", "result": 100}, {"measurement": "phytotoxicity rating SORHA", "setting": "[8]; 63 g ai/ha", "result": 0}, {"measurement": "phytotoxicity rating SORHA", "setting": "[8]; 250 g ai/ha", "result": 60}, {"measurement": "phytotoxicity rating AMBEL", "setting": "[9]; 63 g ai/ha", "result": 70}, {"measurement": "phytotoxicity rating AMBEL", "setting": "[9]; 250 g ai/ha", "result": 100}, {"measurement": "phytotoxicity rating CASOB", "setting": "[10]; 63 g ai/ha", "result": 100}, {"measurement": "phytotoxicity rating CASOB", "setting": "[10]; 250 g ai/ha", "result": 100}, {"measurement": "phytotoxicity rating ECHCG", "setting": "[11]; 63 g ai/ha", "result": 0}, {"measurement": "phytotoxicity rating ECHCG", "setting": "[11]; 250 g ai/ha", "result": 50}, {"measurement": "phytotoxicity rating DIGSA", "setting": "[12]; 63 g ai/ha", "result": 0}, {"measurement": "phytotoxicity rating DIGSA", "setting": "[12]; 250 g ai/ha", "result": 30}, {"measurement": "phytotoxicity rating IPOHE", "setting": "[13]; 63 g ai/ha", "result": 100}, {"measurement": "phytotoxicity rating IPOHE", "setting": "[13]; 250 g ai/ha", "result": 100}, {"measurement": "Pre-emerge Herbicidal Activity, phytotoxicity rating (0-100), CHEAL", "setting": "[14]; 63 g ai/ha", "result": 100}, {"measurement": "Pre-emerge Herbicidal Activity, phytotoxicity rating (0-100), CHEAL", "setting": "[14]; 250 g ai/ha", "result": 100}, {"measurement": "Pre-emerge Herbicidal Activity, phytotoxicity rating (0-100), SETVI", "setting": "[15]; 63 g ai/ha", "result": 100}, {"measurement": "Pre-emerge Herbicidal Activity, phytotoxicity rating (0-100), SETVI", "setting": "[15]; 250 g ai/ha", "result": 100}, {"measurement": "Pre-emerge Herbicidal Activity, phytotoxicity rating (0-100), ABUTH", "setting": "[16]; 63 g ai/ha", "result": 100}, {"measurement": "Pre-emerge Herbicidal Activity, phytotoxicity rating (0-100), ABUTH", "setting": "[16]; 250 g ai/ha", "result": 100}, {"measurement": "Pre-emerge Herbicidal Activity, phytotoxicity rating (0-100), SORHA", "setting": "[17]; 63 g ai/ha", "result": 99}, {"measurement": "Pre-emerge Herbicidal Activity, phytotoxicity rating (0-100), SORHA", "setting": "[17]; 250 g ai/ha", "result": 100}, {"measurement": "Pre-emerge Herbicidal Activity, phytotoxicity rating (0-100), AMBEL", "setting": "[18]; 63 g ai/ha", "result": 100}, {"measurement": "Pre-emerge Herbicidal Activity, phytotoxicity rating (0-100), AMBEL", "setting": "[18]; 250 g ai/ha", "result": 100}, {"measurement": "Pre-emerge Herbicidal Activity, phytotoxicity rating (0-100), CASOB", "setting": "[19]; 63 g ai/ha", "result": 100}, {"measurement": "Pre-emerge Herbicidal Activity, phytotoxicity rating (0-100), CASOB", "setting": "[19]; 250 g ai/ha", "result": 100}, {"measurement": "Pre-emerge Herbicidal Activity, phytotoxicity rating (0-100), ECHCG", "setting": "[20]; 63 g ai/ha", "result": 90}, {"measurement": "Pre-emerge Herbicidal Activity, phytotoxicity rating (0-100), ECHCG", "setting": "[20]; 250 g ai/ha", "result": 100}, {"measurement": "Pre-emerge Herbicidal Activity, phytotoxicity rating (0-100), DIGSA", "setting": "[21]; 63 g ai/ha", "result": 100}, {"measurement": "Pre-emerge Herbicidal Activity, phytotoxicity rating (0-100), DIGSA", "setting": "[21]; 250 g ai/ha", "result": 100}, {"measurement": "Pre-emerge Herbicidal Activity, phytotoxicity rating (0-100), IPOHE", "setting": "[22]; 63 g ai/ha", "result": 100}, {"measurement": "Pre-emerge Herbicidal Activity, phytotoxicity rating (0-100), IPOHE", "setting": "[22]; 250 g ai/ha", "result": 100}, {"measurement": "phytotoxicity rating CORN", "setting": "[23]; 63 g ai/ha", "result": 30}, {"measurement": "phytotoxicity rating CORN", "setting": "[23]; 250 g ai/ha", "result": 80}, {"measurement": "phytotoxicity rating RICE", "setting": "[24]; 63 g ai/ha", "result": 45}, {"measurement": "phytotoxicity rating RICE", "setting": "[24]; 250 g ai/ha", "result": 90}]}]}
